{"source": "patent US9266834B2", "about": "“1, 4-disubstituted 3-cyano-pyridone derivatives and their use as positive allosteric modulators of MGLUR2-receptors” (JANSSEN PHARMACEUTICALS, INC., priority 2006, dated 2016)"}
{"target": "T1, human mGluR2 receptor (Homo sapiens, UniProt Q14416)", "T1 construct": "expressed in transfected cells; host or cells: CHO cells (membrane preparation)", "T1 sequence (Q14416 19-872)": "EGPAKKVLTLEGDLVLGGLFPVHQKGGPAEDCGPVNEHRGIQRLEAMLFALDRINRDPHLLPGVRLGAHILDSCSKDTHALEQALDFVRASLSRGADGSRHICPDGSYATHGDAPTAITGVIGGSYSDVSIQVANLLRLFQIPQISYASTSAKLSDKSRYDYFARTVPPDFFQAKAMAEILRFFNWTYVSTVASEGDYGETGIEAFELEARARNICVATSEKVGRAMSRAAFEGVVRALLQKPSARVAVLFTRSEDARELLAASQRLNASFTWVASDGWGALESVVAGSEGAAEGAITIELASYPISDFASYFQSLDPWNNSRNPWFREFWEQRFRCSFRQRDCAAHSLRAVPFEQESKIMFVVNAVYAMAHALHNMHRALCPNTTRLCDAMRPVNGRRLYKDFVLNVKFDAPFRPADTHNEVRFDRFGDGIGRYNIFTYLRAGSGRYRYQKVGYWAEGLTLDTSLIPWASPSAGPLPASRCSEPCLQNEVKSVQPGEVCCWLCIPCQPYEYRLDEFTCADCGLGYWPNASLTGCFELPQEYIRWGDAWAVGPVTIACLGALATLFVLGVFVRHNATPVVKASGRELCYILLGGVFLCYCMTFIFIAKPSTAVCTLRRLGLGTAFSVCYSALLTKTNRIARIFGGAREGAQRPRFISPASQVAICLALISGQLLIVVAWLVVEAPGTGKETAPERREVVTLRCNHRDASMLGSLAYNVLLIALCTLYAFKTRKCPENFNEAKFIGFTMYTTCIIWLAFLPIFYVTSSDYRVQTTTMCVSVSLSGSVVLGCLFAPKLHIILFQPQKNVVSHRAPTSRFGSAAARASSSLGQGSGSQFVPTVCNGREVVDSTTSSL", "assay": "[35S]GTPγS binding assay (GTPγS-PAM): positive allosteric modulation in presence of glutamate at EC25, membranes from transfected CHO cells", "assay_type": "biochemical", "conditions": "in presence of mGluR2 agonist glutamate at predetermined EC25 concentration, averages of duplicate values of 11-concentration response curves, read-out: GTPgS - hR2 PAM pEC50 (converted)", "method_in_brief": "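Membranes came from butyrate-stimulated CHO cells expressing human mGluR2, used at 15 μg/well in HEPES pH 7.4 with 100 mM NaCl, 3 mM MgCl2, 50 μM GDP and saponin. Compound (0.3 nM-50 μM, 11 concentrations) plus glutamate at EC25 was preincubated 30 min at 30° C., then 0.1 nM [35S]GTPγS was added for 30 min. Filter-bound radioactivity was counted, nonspecific binding was taken with 10 μM GTP, and curves were fitted by four-parameter logistic.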", "units": {"EC50": "nM"}}
{"smiles": "CC(C)CCn1ccc(N2CCC(C(F)(F)F)CC2)c(C#N)c1=O", "note": "[4-010]", "EC50": 2000}
{"smiles": "CC(C)CCn1ccc(N2CCCC(c3ccccc3)C2)c(C#N)c1=O", "note": "(stereo not shown) [4-013]", "EC50": 2000}
{"smiles": "CC(C)CCn1ccc(N2CCC(c3ccccc3)CC2)c(C#N)c1=O", "note": "[4-014]", "EC50": 63.1}
{"smiles": "CC(C)CCn1ccc(N2CCC(Cc3ccccc3)CC2)c(C#N)c1=O", "note": "[4-015]", "EC50": 100}
{"smiles": "Cc1ccc(OC2CCN(c3ccn(CCC(C)C)c(=O)c3C#N)CC2)cc1", "note": "[4-017]", "EC50": 126}
{"smiles": "CC(C)CCn1ccc(N2CCC(Oc3ccc(F)cc3)CC2)c(C#N)c1=O", "note": "[4-018]", "EC50": 501}
{"smiles": "CC(C)CCn1ccc(N2CCC(OCc3cccc(C(F)(F)F)c3)CC2)c(C#N)c1=O", "note": "[4-020]", "EC50": 126}
{"smiles": "CCOc1ccccc1OC1CCN(c2ccn(CCC(C)C)c(=O)c2C#N)CC1", "note": "[4-021]", "EC50": 200}
{"smiles": "CC(C)CCn1ccc(N2CCC(OCc3ccc(OC(F)(F)F)cc3)CC2)c(C#N)c1=O", "note": "[4-022]", "EC50": 50.1}
{"smiles": "CC(C)CCn1ccc(N2CCCC(Nc3ccccc3)C2)c(C#N)c1=O", "note": "(stereo not shown) [4-023]", "EC50": 5010}
{"smiles": "CC(C)CCn1ccc(N2CCC(NCc3cccc(C(F)(F)F)c3)CC2)c(C#N)c1=O", "note": "[4-024]", "EC50": 6310}
{"smiles": "CC(C)CCn1ccc(N2CCC(N(C)Cc3ccccc3)CC2)c(C#N)c1=O", "note": "[4-026]", "EC50": 1580}
{"smiles": "CC(C)CCn1ccc(N2CCC(N(C)Cc3cccc(C(F)(F)F)c3)CC2)c(C#N)c1=O", "note": "[4-028]", "EC50": 100}
{"smiles": "CC(C)CCn1ccc(N2CCC(CN(C)Cc3ccc(F)cc3)CC2)c(C#N)c1=O", "note": "[4-030]", "EC50": 1260}
{"smiles": "CC(C)CCn1ccc(N2CCC(N(C)CCc3cccc(C(F)(F)F)c3)CC2)c(C#N)c1=O", "note": "[4-032]", "EC50": 398}
{"smiles": "CC(C)CCn1ccc(N2CCC(n3ccc4ccccc43)CC2)c(C#N)c1=O", "note": "[4-035]", "EC50": 100}
{"smiles": "CC(C)CCn1ccc(N2CCC(c3noc(-c4ccccc4)n3)CC2)c(C#N)c1=O", "note": "[4-041]", "EC50": 126}
{"smiles": "CC(C)CCn1ccc(N2CCC(c3ccccc3)(N3CCOCC3)CC2)c(C#N)c1=O", "note": "[4-044]", "EC50": 2510}
{"smiles": "COC1(c2ccccc2)CCN(c2ccn(CCC(C)C)c(=O)c2C#N)CC1", "note": "[4-045]", "EC50": 126}
{"smiles": "N#Cc1c(N2CCC(c3ccccc3)CC2)ccn(CC2CCCCO2)c1=O", "note": "(stereo not shown) [4-048]", "EC50": 2000}
{"smiles": "N#Cc1c(N2CCC(N3CCc4ccccc4C3)CC2)ccn(Cc2ccc(OC(F)(F)F)cc2)c1=O", "note": "[4-051]", "EC50": 501}
{"smiles": "Cc1cc(OCC2CCN(c3ccn(Cc4ccc(OC(F)(F)F)cc4)c(=O)c3C#N)CC2)ccn1", "note": "[4-052]", "EC50": 631}
{"smiles": "Cc1ccc(C2(O)CCN(c3ccn(Cc4ccc(OC(F)(F)F)cc4)c(=O)c3C#N)CC2)cn1", "note": "[4-053]", "EC50": 3160}
{"smiles": "CN(Cc1ccccc1)C1CCN(c2ccn(Cc3ccc(F)cc3)c(=O)c2C#N)CC1", "note": "[4-056]", "EC50": 5010}
{"smiles": "CN(Cc1cccc(C(F)(F)F)c1)C1CCN(c2ccn(Cc3ccc(F)cc3)c(=O)c2C#N)CC1", "note": "[4-058]", "EC50": 251}
{"smiles": "N#Cc1c(N2CCC(O)(c3cccnc3)CC2)ccn(Cc2ccc(OC(F)(F)F)cc2)c1=O", "note": "[4-063]", "EC50": 5010}
{"smiles": "CN(Cc1cccc(C(F)(F)F)c1)C1CCN(c2ccn(CCOc3ccccc3)c(=O)c2C#N)CC1", "note": "[4-065]", "EC50": 31.6}
{"smiles": "N#Cc1c(N2CCC(c3ccccc3)CC2)ccn(CCOc2ccccc2)c1=O", "note": "[4-066]", "EC50": 31.6}
{"smiles": "CC(C)CCn1ccc(N2CCc3ccccc3C2)c(C#N)c1=O", "note": "[5-003]", "EC50": 251}
{"smiles": "CC(C)CCn1ccc(N2C[C@@H]3C[C@H]2CN3Cc2ccccc2)c(C#N)c1=O", "note": "[5-004]", "EC50": 5010}
{"smiles": "CC(C)CCn1ccc(C2CCN(Cc3ccccc3)C2)c(C#N)c1=O", "note": "(stereo not shown) [5-007]", "EC50": 1260}
{"smiles": "CC(C)CCn1ccc(-c2ccc3c(c2)CCN3)c(C#N)c1=O", "note": "[5-014]", "EC50": 2000}
{"smiles": "CC(=O)N1CCc2cc(-c3ccn(CCC(C)C)c(=O)c3C#N)ccc21", "note": "[5-015]", "EC50": 1580}
{"smiles": "CC(C)CCn1ccc(-c2ccc3[nH]ccc3c2)c(C#N)c1=O", "note": "[5-016]", "EC50": 251}
{"smiles": "CC(C)CCn1ccc(-c2cccc3[nH]ccc23)c(C#N)c1=O", "note": "[5-017]", "EC50": 794}
{"smiles": "CC(C)CCn1ccc(-c2ccc3c(ccn3-c3ccccc3)c2)c(C#N)c1=O", "note": "[5-019]", "EC50": 50.1}
{"smiles": "CC(C)CCn1ccc(-c2ccc3[nH]ncc3c2)c(C#N)c1=O", "note": "[5-021]", "EC50": 1580}
